Test results: paper PMC9583322, “Vicinal Diaryl-Substituted Isoxazole and Pyrazole Derivatives with In Vitro Growth Inhibitory and In Vivo Antitumor Activity” (ACS Omega, 2022)

Tests used:
Assay in all cases: NCI-60 single-dose screen
Format in all cases: cell-based
[1] = system: A498; conditions: Homo sapiens, A498, Renal Cancer, read-out: % Growth Inhibition (GI%)
Protocol: (§1) Moreover, in vitro single-dose anticancer screening of 11 and 85 at 10 μM was performed utilizing the stable panel of 60 cell lines comprising 9 different cancer types at the National Cancer Institute (NCI) under the Developmental Therapeutics Program (Table S1).[31]

[2] = system: TK-10; conditions: Homo sapiens, TK-10, Renal Cancer, read-out: % Growth Inhibition (GI%)
Protocol: as §1

[3] = system: NCI-H226; conditions: Homo sapiens, NCI-H226, Non-Small Cell Lung Cancer, read-out: % Growth Inhibition (GI%)
Protocol: as §1

[4] = system: ACHN; conditions: Homo sapiens, Renal Cancer, read-out: % Growth Inhibition (GI%)
Protocol: as §1

[5] = system: A549/ATCC; conditions: Homo sapiens, Non-Small Cell Lung Cancer, read-out: % Growth Inhibition (GI%)
Protocol: as §1

[6] = system: OVCAR-3; conditions: Homo sapiens, OVCAR-3, Ovarian Cancer, read-out: % Growth Inhibition (GI%)
Protocol: as §1

[7] = system: NCI-H322M; conditions: Homo sapiens, Non-Small Cell Lung Cancer, read-out: % Growth Inhibition (GI%)
Protocol: as §1

[8] = system: MALME-3M; conditions: Homo sapiens, Melanoma, read-out: % Growth Inhibition (GI%)
Protocol: as §1

[9] = system: HCT-116; conditions: Homo sapiens, HCT-116, Colon Cancer, read-out: % Growth Inhibition (GI%)
Protocol: as §1

[10] = system: SK-MEL-2; conditions: Homo sapiens, SK-MEL-2, Melanoma, read-out: % Growth Inhibition (GI%)
Protocol: as §1

[11] = system: SK-MEL-5; conditions: Homo sapiens, SK-MEL-5, Melanoma, read-out: % Growth Inhibition (GI%)
Protocol: as §1

[12] = system: BT-549; conditions: Homo sapiens, BT-549, Breast Cancer, read-out: % Growth Inhibition (GI%)
Protocol: as §1

[13] = system: MOLT-4; conditions: Homo sapiens, MOLT-4, Leukemia, read-out: % Growth Inhibition (GI%)
Protocol: as §1

[14] = system: SR; conditions: Homo sapiens, Leukemia, read-out: % Growth Inhibition (GI%)
Protocol: as §1

[15] = system: HCC-2998; conditions: Homo sapiens, HCC-2998, Colon Cancer, read-out: % Growth Inhibition (GI%)
Protocol: as §1

[16] = system: DU-145; conditions: Homo sapiens, DU-145, Prostate Cancer, read-out: % Growth Inhibition (GI%)
Protocol: as §1

[17] = system: OVCAR-8; conditions: Homo sapiens, OVCAR-8, Ovarian Cancer, read-out: % Growth Inhibition (GI%)
Protocol: as §1

[18] = system: 786-0; conditions: Homo sapiens, 786-0, Renal Cancer, read-out: % Growth Inhibition (GI%)
Protocol: as §1

[19] = system: HCT-15; conditions: Homo sapiens, HCT-15, Colon Cancer, read-out: % Growth Inhibition (GI%)
Protocol: as §1

[20] = system: UACC-257; conditions: Homo sapiens, UACC-257, Melanoma, read-out: % Growth Inhibition (GI%)
Protocol: as §1

[21] = system: K-562; conditions: Homo sapiens, K562, K-562, Leukemia, read-out: % Growth Inhibition (GI%)
Protocol: as §1

[22] = system: RXF 393; conditions: Homo sapiens, RXF 393, Renal Cancer, read-out: % Growth Inhibition (GI%)
Protocol: as §1

[23] = system: NCI/ADR-RES; conditions: Homo sapiens, Ovarian Cancer, read-out: % Growth Inhibition (GI%)
Protocol: as §1

[24] = system: OVCAR-5; conditions: Homo sapiens, OVCAR-5, Ovarian Cancer, read-out: % Growth Inhibition (GI%)
Protocol: as §1

[25] = system: U251; conditions: Homo sapiens, U-251, U251, CNS Cancer, read-out: % Growth Inhibition (GI%)
Protocol: as §1

[26] = system: SW-620; conditions: Homo sapiens, SW-620, Colon Cancer, read-out: % Growth Inhibition (GI%)
Protocol: as §1

[27] = system: UACC-62; conditions: Homo sapiens, UACC-62, Melanoma, read-out: % Growth Inhibition (GI%)
Protocol: as §1

[28] = system: HT29; conditions: Homo sapiens, HT-29, HT29, Colon Cancer, read-out: % Growth Inhibition (GI%)
Protocol: as §1

[29] = system: SF-539; conditions: Homo sapiens, SF-539, CNS Cancer, read-out: % Growth Inhibition (GI%)
Protocol: as §1

[30] = system: SK-OV-3; conditions: Homo sapiens, SK-OV-3, Ovarian Cancer, read-out: % Growth Inhibition (GI%)
Protocol: as §1

[31] = system: IGROV1; conditions: Homo sapiens, IGROV-1, IGROV1, Ovarian Cancer, read-out: % Growth Inhibition (GI%)
Protocol: as §1

[32] = system: SNB-75; conditions: Homo sapiens, SNB-75, CNS Cancer, read-out: % Growth Inhibition (GI%)
Protocol: as §1

[33] = system: HL-60 (TB); conditions: Homo sapiens, Leukemia, read-out: % Growth Inhibition (GI%)
Protocol: as §1

[34] = system: SK-MEL-28; conditions: Homo sapiens, SK-MEL-28, Melanoma, read-out: % Growth Inhibition (GI%)
Protocol: as §1

[35] = system: SF-268; conditions: Homo sapiens, SF-268, CNS Cancer, read-out: % Growth Inhibition (GI%)
Protocol: as §1

[36] = system: CCRF-CEM; conditions: Homo sapiens, Leukemia, read-out: % Growth Inhibition (GI%)
Protocol: as §1

Row | SMILES | inhibition at 10 µM [1] [%] | inhibition at 10 µM [2] [%] | inhibition at 10 µM [3] [%] | inhibition at 10 µM [4] [%] | inhibition at 10 µM [5] [%] | inhibition at 10 µM [6] [%] | inhibition at 10 µM [7] [%] | inhibition at 10 µM [8] [%] | inhibition at 10 µM [9] [%] | inhibition at 10 µM [10] [%] | inhibition at 10 µM [11] [%] | inhibition at 10 µM [12] [%] | inhibition at 10 µM [13] [%] | inhibition at 10 µM [14] [%] | inhibition at 10 µM [15] [%] | inhibition at 10 µM [16] [%] | inhibition at 10 µM [17] [%] | inhibition at 10 µM [18] [%] | inhibition at 10 µM [19] [%] | inhibition at 10 µM [20] [%] | other results
1 | Cc1ccccc1COc1ccc(-c2noc(C)c2-c2ccc(Cl)cc2)cc1 [compound 11, 4-(4-Chlorophenyl)-5-methyl-3-(4-((2-methylbenzyl)oxy)phenyl)isoxazole] | 61.4 | 15.7 | 42.8 | 33 | 50.7 | 79.3 | 2.44 | 40.2 | 66 | 62.9 | 26.6 | 33.8 | 67.2 | 66 | 13.4 | 22.6 | 24.2 | 24.5 | 62.5 | 29.1 | inhibition at 10 µM [21]: 85.6%; inhibition at 10 µM [22]: 29.8%; inhibition at 10 µM [23]: 60.8%; inhibition at 10 µM [24]: 12.4%; inhibition at 10 µM [25]: 58.7%; inhibition at 10 µM [26]: 68.3%; inhibition at 10 µM [27]: 51.5%; inhibition at 10 µM [28]: 83.1%; inhibition at 10 µM [29]: 36.5%; inhibition at 10 µM [30]: 40.5%; inhibition at 10 µM [31]: 47.5%; inhibition at 10 µM [32]: 47.1%; inhibition at 10 µM [33]: 82.3%; inhibition at 10 µM [34]: 29.6%; inhibition at 10 µM [35]: 24.4%; inhibition at 10 µM [36]: 61.8%
2 | Cc1ccccc1COc1ccc(-c2ccnn2-c2ccc(Cl)cc2)cc1 [compound 85, 1-(4-Chlorophenyl)-5-(4-((2-methylbenzyl)oxy)phenyl)-1H-pyrazole] | 42.5 | 16.2 | 29.7 | 22.4 | 50.5 | 73.4 | 3.12 | 32.8 | 61.9 | 60.8 | 33.4 | 25 | 73.7 | 66.2 | 10.9 | 11.9 | 24.8 | 17.2 | 60.1 | 24.3 | inhibition at 10 µM [21]: 86.3%; inhibition at 10 µM [22]: 39.7%; inhibition at 10 µM [23]: 62%; inhibition at 10 µM [24]: 8.29%; inhibition at 10 µM [25]: 54%; inhibition at 10 µM [26]: 70.3%; inhibition at 10 µM [27]: 39.3%; inhibition at 10 µM [28]: 82.4%; inhibition at 10 µM [29]: 28.2%; inhibition at 10 µM [30]: 36.3%; inhibition at 10 µM [31]: 42.5%; inhibition at 10 µM [32]: 39.3%; inhibition at 10 µM [33]: 86.7%; inhibition at 10 µM [34]: 30.6%; inhibition at 10 µM [35]: 19.5%; inhibition at 10 µM [36]: 57.6%
